In US20240366624A1, “METHODS AND COMPOSITIONS FOR TREATING THROMBOTIC DISEASE” (Washington University, priority 2023, published 2024):

Key:
ERO1α [1] = target: T1, ERO1α (Homo sapiens, UniProt Q96HE7); experiment: Bio-layer interferometry, B12-5 on biotinylated ERO1α biosensor; settings: read-out: KD, binding to ERO1α
T1 sequence (Q96HE7 24-468): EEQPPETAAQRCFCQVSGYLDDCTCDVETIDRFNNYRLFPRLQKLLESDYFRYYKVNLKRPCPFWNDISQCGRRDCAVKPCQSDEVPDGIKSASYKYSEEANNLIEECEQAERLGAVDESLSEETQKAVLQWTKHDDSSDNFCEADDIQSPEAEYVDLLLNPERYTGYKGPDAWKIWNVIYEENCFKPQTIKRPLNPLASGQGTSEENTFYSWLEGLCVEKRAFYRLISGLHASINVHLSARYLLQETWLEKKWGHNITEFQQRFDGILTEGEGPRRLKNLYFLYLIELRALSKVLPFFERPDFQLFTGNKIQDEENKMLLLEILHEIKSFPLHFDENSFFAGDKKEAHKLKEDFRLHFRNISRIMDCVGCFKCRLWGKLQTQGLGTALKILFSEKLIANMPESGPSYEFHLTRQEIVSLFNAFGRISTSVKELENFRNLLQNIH
Description: FIG. 18(A-R) is an exemplary embodiment of novel small-molecule inhibitors recapitulating the defect in Ero1α (endoplasmic reticulum oxidoreductase 1a)-null platelets in accordance with the present disclosure. FIG. 18A: The structure of B12 and its inhibitory effect on ERO1α activity. FIG. 18(B-E): The inhibitory effect of B12 on P-selectin exposure and αIIbβ3 integrin activation in (FIG. 18B and FIG. 18C) mouse and (FIG. 18D and FIG. 18E) human platelets. FIG. 18F: The structure of B12-5 and its inhibitory effect on ERO1α activity. FIG. 18G: A docking model of B12-5-ERO1α (3AHQ) and flavin adenine dinucleotide (FAD)-ERO1α complex. There are pi-sulfur interactions of the phenothiazine head group (B112-5) or a tricyclic ring (FAD) with Met389 and Cys397. Also, there are H bond interactions between the tail/alkyl group and His255, Asn259, and Arg287. […] After incubation with a different concentration of B12-5, the specific interaction between B12-5 and ERO1α was measured by subtracting the nonspecific binding. The KD value was calculated from the Kon and Koff values. […] P values determined by ANOVA and Dunnett test (FIG. 18(B-E), FIG. 18(1-L), and FIG. 18(O-R) [for B12-5]) or Student t test (FIG. 18M, FIG. 18N, and FIG. 18(O-R) [for BAPTA (1,2-bis(o-aminophenoxy)ethane-N,N,N′,N′-tetraacetic acid)]). […]

mouse platelets = experiment: Ca2+ mobilization (FLIPR), mouse platelets; type: cell-based
Experimental: FIG. 15 is an exemplary embodiment of EN460 affecting the basal level of cytosolic Ca2+ and inhibiting Ca2+ mobilization in accordance with the present disclosure. WT mouse platelets were pretreated with vehicle (0.1% DMSO) or 5-10 μM EN460, followed by measuring Ca2+ release and influx after stimulation with 2 μM A23187 and the addition of 1 mM CaCl2). The data represent the mean±SD (n=3). P values determined by ANOVA and Dunnett's test.
Ca^2+ mobilization was measured as described previously. WT control and Ero1α-null platelets (1×10^8/mL) were suspended in HEPES-Tyrode buffer, pH 7.4. Cells were incubated with a Ca^2+ dye (FLIPR Ca^2+5 assay kit; Molecular Devices) for 30 minutes at 37° C. in the dark, followed by stimulation with thrombin (0.1 U/mL), A23187 (2 μM) or thapsigargin (10-20 μM). After measuring Ca^2+ release, 1 mM CaCl2) was immediately added to assess Ca^2+ influx. In other experiments, Ca^2+ dye-labeled human and WT mouse platelets were incubated with a vehicle or an inhibitor for 10 minutes at 37° C. Cytosolic Ca^2+ levels were measured using a FlexStation3 microplate reader with an excitation wavelength of 485 nm and an emission wavelength of 525 nm. Ca^2+ mobilization was quantified by the area under the curve and expressed as a relative fluorescence unit.

platelets [2] = experiment: Platelet activation and aggregation, platelet source not stated; type: cell-based; settings: 5-10 microM
Description: As described herein, small molecule ERO1α inhibitors were identified by performing a high throughput screen using a ChemDiv library. […] Furthermore, intravenous injection of B112-5 reduced the infarct volume in a mouse model of ischemic stroke.

platelets [3] = settings: 10 to 33 μM, recent study; cited from earlier work
ERO1α [4] = target: T1, ERO1α; settings: from studies; cited from earlier work

Row | Structure (SMILES) | Kd (ERO1α [1]) [µM] | Ca2+ release and influx (mouse platelets; mouse platelets, thrombin or A23187) | platelet activation and aggregation (platelets [2]) | Ca2+ release and influx (mouse platelets; A23187 stimulation, 5-10 μM) | basal level of cytosolic Ca2+ (mouse platelets; concentration-dependent, 5-10 μM, 3 to 10 μM) | thrombin-induced platelet aggregation (platelets [3]) | IC50 (ERO1α [4]) [µM]
1 | O=C(CSc1nc(O)cc(O)n1)N1c2ccccc2Sc2ccccc21 [B12-5] | 12.9 ± 3.8 | dose dependently inhibited | significantly inhibited |  |  |  | 
2 | O=C(O)c1cc(N2N=C(C(F)(F)F)/C(=C/c3ccc(-c4ccccc4)o3)C2=O)ccc1Cl [EN460] |  |  |  | diminished | increased | significantly blocks | 1.9
